We go through 11 compounds from ChEMBL document CHEMBL1201862, “PubChem BioAssay data set” (2004).

Structures are written as SMILES.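 The compound was tested at five concentrations on cells cultured in 96-well plates, with a 48-hour exposure period. GI50 = concentration required for 50% inhibition of growth.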 Activity calls are given as the source filed them. Cut-off read from the data, not from the text of the source: active = GI50 up to about 1.1 µM and inactive = higher.

Some test systems named below: DU-145; HOP-62; BT-549; K562; MCF7; LOX IMVI; Hs-578T; HL-60; T47D; MDA-MB-435; NCI-H23; RXF 393; UACC-257; EKVX; A498; KM12; SW-620; OVCAR-4; A549; HOP-92.
Holding throughout (test): inhibition of tumour cell growth, NCI panel, 48 h

Turning to `CNC(=O)C1OC(n2cnc3c(NCc4cccc(I)c4)nc(Cl)nc32)C(O)C1O` (configuration not stated), the GI50 in the experiment on DU-145 was 19.7 µM (inactive); with HOP-62 it was 12.7 µM (inactive); with BT-549 it was 14.1 µM (inactive); with K562 it was 12.9 µM (inactive); with MCF7 it was 12.8 µM (inactive); with LOX IMVI, 6.18 µM (inactive). Besides, the GI50 in the experiment with Hs-578T is 1.55 µM (inactive); in the experiment on HL-60 it was 15.3 µM (inactive); in the experiment on T47D it was 15.6 µM (inactive); in the experiment with MDA-MB-435, 11.3 µM (inactive); with NCI-H23, 12.7 µM (inactive); in the experiment with RXF 393, 10.4 µM (inactive). Also, the GI50 is 11.4 µM (inactive) with UACC-257; 13.5 µM (inactive) in the experiment with EKVX; 13.8 µM (inactive) in the experiment on A498; 12 µM (inactive) in the experiment on KM12; 14.9 µM (inactive) in the experiment with SW-620.

Consider `CC(C)C(/N=C/c1ccccc1O)C(=O)O` (configuration not stated), for which the GI50 in the experiment with DU-145, in the experiment with HOP-62, in the experiment on BT-549, with K562, in the experiment with MCF7 and in the experiment on LOX IMVI was > 100 µM (inactive) throughout. In addition, the GI50 in the experiment on Hs-578T is 59.2 µM (inactive); in the experiment on HL-60 it was > 100 µM (inactive); with T47D, > 100 µM (inactive); with MDA-MB-435 it was > 100 µM (inactive); in the experiment on NCI-H23, > 100 µM (inactive); in the experiment with UACC-257, > 100 µM (inactive). The GI50 with EKVX, with OVCAR-4, in the experiment on A549, with HOP-92, in the experiment with A498 and with KM12 was > 100 µM (inactive) throughout. For the same compound, the GI50 in the experiment with SW-620 was > 100 µM (inactive).

Regarding `O=S1OC[C@H](CCCl)O1` (some centres not stated), the GI50 with DU-145 was > 100 µM (inactive); in the experiment with HOP-62, > 100 µM (inactive); in the experiment on BT-549, > 100 µM (inactive); with K562 it was > 100 µM (inactive); in the experiment on MCF7, > 100 µM (inactive); in the experiment on LOX IMVI, 83.6 µM (inactive). The GI50 with Hs-578T, in the experiment with HL-60, in the experiment on T47D, with MDA-MB-435, in the experiment on NCI-H23 and in the experiment with UACC-257 was > 100 µM (inactive) in each case. Further, the GI50 in the experiment on EKVX was > 100 µM (inactive); with OVCAR-4, > 100 µM (inactive); in the experiment with A549 it was > 100 µM (inactive); in the experiment with HOP-92 it was > 100 µM (inactive); in the experiment with A498, > 100 µM (inactive); with KM12, 13.8 µM (inactive). Further, in the experiment with SW-620, the GI50 was > 100 µM (inactive).

Turning to `CC12Cc3cc4c(cc3C1(c1ccc([N+](=O)[O-])cc1)OCCO2)OCO4` (configuration not stated), the GI50 is 87.1 µM (inactive) with DU-145; 18.1 µM (inactive) in the experiment on HOP-62; 25.5 µM (inactive) in the experiment on BT-549; > 100 µM (inactive) in the experiment on K562; 76.7 µM (inactive) with MCF7; > 100 µM (inactive) in the experiment with LOX IMVI. The GI50 was 25.5 µM (inactive) in the experiment with Hs-578T; > 100 µM (inactive) in the experiment on HL-60; > 100 µM (inactive) in the experiment with T47D; > 100 µM (inactive) in the experiment on MDA-MB-435; 42.9 µM (inactive) in the experiment on NCI-H23; 16.4 µM (inactive) with RXF 393. Further, the GI50 in the experiment on UACC-257 was > 100 µM (inactive); in the experiment with EKVX, 37.2 µM (inactive); in the experiment on OVCAR-4 it was > 100 µM (inactive); with A549, > 100 µM (inactive); in the experiment on A498 it was > 100 µM (inactive); with KM12, > 100 µM (inactive). In addition, the GI50 in the experiment with SW-620 was > 100 µM (inactive).

In the case of `CCOc1cc(C(c2c(O)c3ccccc3oc2=O)c2c(O)c3ccccc3oc2=O)ccc1OC`, the GI50 was 19.3 µM (inactive) in the experiment on DU-145; 18.2 µM (inactive) with HOP-62; 20.7 µM (inactive) in the experiment on BT-549; 33.4 µM (inactive) with K562; 21 µM (inactive) in the experiment on MCF7; 20.6 µM (inactive) with LOX IMVI. Besides, the GI50 in the experiment with Hs-578T was 26.8 µM (inactive); in the experiment with HL-60, 24.8 µM (inactive); in the experiment with T47D it was 16.1 µM (inactive); with MDA-MB-435 it was 15.3 µM (inactive); with NCI-H23, 23.4 µM (inactive); in the experiment on UACC-257 it was 16.4 µM (inactive). Besides, the GI50 with EKVX is 21.3 µM (inactive); in the experiment on OVCAR-4, 17.2 µM (inactive); in the experiment on A549, 38.6 µM (inactive); in the experiment with HOP-92, 16.5 µM (inactive); in the experiment with A498 it was 19.6 µM (inactive); with KM12 it was 18.2 µM (inactive). The GI50 with SW-620 was 35.4 µM (inactive).

For the compound `CC(=O)OC/C=C(/CCl)CCC(Br)C(C)(C)Br.CC(=O)OC/C=C(\CCl)CCC(Br)C(C)(C)Br` (configuration not stated), the GI50 in the experiment with DU-145, with HOP-62, in the experiment on BT-549, in the experiment on K562, with MCF7 and in the experiment with LOX IMVI was > 10 µM (inactive) in each case. Also, the GI50 with Hs-578T, in the experiment with HL-60, in the experiment on T47D, in the experiment on MDA-MB-435, in the experiment with NCI-H23 and in the experiment on RXF 393 was > 10 µM (inactive) each time. The GI50 in the experiment with UACC-257, in the experiment on EKVX, in the experiment on OVCAR-4, with A549, in the experiment with A498 and in the experiment with KM12 was > 10 µM (inactive) each time. In the experiment with SW-620, the GI50 was > 10 µM (inactive).

On to `FC1(F)SC2CCCCCCCCCCC2C1(F)F` (configuration not stated), for which the GI50 is 31.1 µM (inactive) with DU-145; 38.6 µM (inactive) with HOP-62; 44 µM (inactive) in the experiment with BT-549; 15.3 µM (inactive) with K562; 20.2 µM (inactive) in the experiment with MCF7; 16.4 µM (inactive) in the experiment with LOX IMVI. The GI50 with Hs-578T was 36.1 µM (inactive); in the experiment with HL-60, 15.4 µM (inactive); in the experiment on T47D it was 30.9 µM (inactive); in the experiment on MDA-MB-435 it was 28.3 µM (inactive); in the experiment with NCI-H23 it was 23.8 µM (inactive); in the experiment on RXF 393, 20.7 µM (inactive). For the same compound, the GI50 is 20.5 µM (inactive) in the experiment on UACC-257; 35.5 µM (inactive) in the experiment on EKVX; 22.1 µM (inactive) with OVCAR-4; 35 µM (inactive) in the experiment on A549; 19.1 µM (inactive) in the experiment with HOP-92.

On to `COc1cc(/C=C/C(=O)CC(=O)/C=C/c2cc(OC)c(O)c(OC)c2)cc(OC)c1O`, for which the GI50 with DU-145 is 7.83 µM (inactive); in the experiment with HOP-62, 11.7 µM (inactive); in the experiment with BT-549 it was 8.95 µM (inactive); in the experiment on K562 it was 8.69 µM (inactive); in the experiment with MCF7, 14.9 µM (inactive); with LOX IMVI it was 7.82 µM (inactive). The GI50 with Hs-578T was 7.93 µM (inactive); with HL-60, 16.3 µM (inactive); in the experiment on T47D, 6.5 µM (inactive); with MDA-MB-435, 6.17 µM (inactive); with NCI-H23 it was 10.3 µM (inactive); with RXF 393 it was 3.33 µM (inactive). Besides, the GI50 is 8.34 µM (inactive) in the experiment with UACC-257; 12.6 µM (inactive) in the experiment with EKVX; 23.7 µM (inactive) with OVCAR-4; 8.26 µM (inactive) in the experiment on A549; 4.93 µM (inactive) with A498; 6.15 µM (inactive) with KM12. Besides, the GI50 in the experiment with SW-620 is > 25 µM (inactive).

For the compound `CN(Cc1cnc2nc(N)nc(N)c2n1)c1ccc(C(=O)NC23CC4CC(CC(C4)C2)C3)cc1`, the GI50 with DU-145 is 10.7 µM (inactive); with HOP-62, 12.6 µM (inactive); with BT-549 it was 11.8 µM (inactive); with K562, 1.06 µM (active); with MCF7, 10.9 µM (inactive); in the experiment on LOX IMVI, 5.48 µM (inactive). Besides, the GI50 with Hs-578T is 12.9 µM (inactive); in the experiment with HL-60 it was 12.2 µM (inactive); in the experiment with T47D it was 15.9 µM (inactive); in the experiment on MDA-MB-435, 10.5 µM (inactive); in the experiment with NCI-H23, 10.2 µM (inactive); in the experiment on RXF 393, 17.1 µM (inactive). In addition, the GI50 in the experiment with UACC-257 was 10.9 µM (inactive); with EKVX, 13.2 µM (inactive); in the experiment with A498, 53.6 µM (inactive); with KM12 it was 12.3 µM (inactive); in the experiment on SW-620, 7.33 µM (inactive).

Take `C/C(=C\CSCC(N)C(=O)O)CC/C=C(\C)CNc1ccccc1` (configuration not stated): the GI50 is > 100 µM (inactive) in the experiment with DU-145; > 100 µM (inactive) in the experiment on HOP-62; 64.1 µM (inactive) with BT-549; > 100 µM (inactive) with K562; > 100 µM (inactive) in the experiment with MCF7; > 100 µM (inactive) in the experiment with LOX IMVI. The GI50 with Hs-578T, with HL-60, with T47D, with MDA-MB-435, with NCI-H23 and in the experiment on RXF 393 was > 100 µM (inactive) in each case. For the same compound, the GI50 in the experiment with UACC-257, in the experiment with EKVX, in the experiment on OVCAR-4, in the experiment with A549, with KM12 and with SW-620 was > 100 µM (inactive) in each case.

In the case of `CC1(C(=O)O)C[C@](C)(C(=O)OCc2ccccc2)C[C@](C)(C(=O)OCc2ccccc2)C1` (some centres not stated), the GI50 with DU-145 is 29.8 µM (inactive); in the experiment with HOP-62 it was 30.5 µM (inactive); in the experiment on BT-549, 26.5 µM (inactive); in the experiment with K562 it was 37 µM (inactive); in the experiment with MCF7, 34.1 µM (inactive); with LOX IMVI, 30.8 µM (inactive). The GI50 in the experiment on Hs-578T was 30.3 µM (inactive); in the experiment with HL-60, 22.4 µM (inactive); with T47D, 35.2 µM (inactive); with MDA-MB-435, 40.5 µM (inactive); with NCI-H23 it was 25.1 µM (inactive); in the experiment with RXF 393, 21.6 µM (inactive). Also, the GI50 in the experiment with UACC-257 was 38.9 µM (inactive); in the experiment with EKVX it was 25.1 µM (inactive); in the experiment on OVCAR-4 it was 39.8 µM (inactive); with A549 it was 35.6 µM (inactive); in the experiment on HOP-92, 19.6 µM (inactive); in the experiment on KM12, 31.2 µM (inactive). Further, in the experiment on SW-620, the GI50 is 47 µM (inactive).
